Where a SMILES comes first, the peptide text is derived from it. Bridges are numbered along the chain shown (N, C = ends). Triazole bridges read from a SMILES are 1,4-linked. [ ]: non-standard residue; d: D form. Oic = O=C(O)[C@@H]1C[C@@H]2CCCC[C@@H]2N1; Dap(N3) = [N-]=[N+]=NC[C@H](N)C(=O)O; tBuAla = CC(C)(C)C[C@H](N)C(=O)O; Pen = CC(C)(S)[C@H](N)C(=O)O; Pra = C#CC[C@H](N)C(=O)O; Dab = NCC[C@H](N)C(=O)O; Dap = NC[C@H](N)C(=O)O; Ahx = NCCCCCC(=O)O; Sar = CNCC(=O)O

This is an account of results in patent US20240010684A1, “MASP INHIBITORY COMPOUNDS AND USES THEREOF” (BAYER AKTIENGESELLSCHAFT, priority 2020, published 2024).

One test has as its target human MASP1 (Homo sapiens (Human), UniProt P48740). Description: Biochemical human MASP1 assay (FRET substrate). The note with it: Average IC50; recombinant human MASP1; read-out: human MASP1 IC50. The method, boiled down:
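Recombinant human MASP1 (aa 297-699, C-terminal His tag, HEK293-expressed, Ni-NTA purified) diluted to 20 nM in 50 mM HEPES pH 8,0, 100 mM NaCl, 0,01% CHAPS, 0.5 mM glutathione, preincubated with compound in DMSO; reaction started with 20 μM ABZ/Dnp FRET substrate solution. Fluorescence (ex 320/em 420 nm) after 60-120 min at 32 C; IC50 from % inhibition.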

The next test has as its target human MASP2 (Homo sapiens (Human), UniProt O00187). Put plainly: Biochemical human MASP2 assay (FRET substrate). The following applies: Average IC50; recombinant human MASP2; read-out: human MASP2 IC50. In short, it runs like this: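 Mature recombinant human MASP2, expressed in HEK293 and purified by Ni-NTA affinity, was reacted with a DABCYL FRET peptide substrate (added as a 60 μM solution) for 60-120 min at 32 C. Fluorescence increase was read at ex 340/em 490 nm; IC50 was derived from % inhibition versus compound concentration.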

Test [1] relates to Human C3-DEPOSITION SERUM. Description: C3 deposition assay, human serum on mannan-coated plates. In kind it is biochemical. The following applies: Average IC50, read-out: Human C3-DEPOSITION SERUM IC50. On the procedure: 3. C3 Deposition Assay (Human, Rat, Mouse, Dog, Pig))
The C3 deposition assay was conducted essentially as described (reference). Multiwell plates (Greiner-Nunc 384 Maxi Sorp #464718) were coated over night with Mannan from Saccharomyces cerevisiae (Sigma M7504, 10 μg/mL in 0.05 M carbonate-bicarbonate buffer, pH 9.6) at 4° C. Wells were washed three times with TBS and subsequently incubated for 2 hours with 50 μL of 1% bovine serum albumin (BSA) in Tris-buffered saline (TBS) at 37° C. in order to block non-specific binding. After this step and each of the following incubation steps wells were washed three times with C3 wash buffer (TBS; 0.05% Tween 20; 5 mM CaCl2). […] When appropriately developed the color reaction was stopped by addition of 25 μL of stop solution (Sigma S5814) and quantified on a photometer by measuring absorption at a wavelength of 450 nm. Antibodies were diluted in C3 wash buffer supplemented with 0.5% BSA.

Chain of human MASP2 (O00187 other isoform, or with tags, fused parts or gaps): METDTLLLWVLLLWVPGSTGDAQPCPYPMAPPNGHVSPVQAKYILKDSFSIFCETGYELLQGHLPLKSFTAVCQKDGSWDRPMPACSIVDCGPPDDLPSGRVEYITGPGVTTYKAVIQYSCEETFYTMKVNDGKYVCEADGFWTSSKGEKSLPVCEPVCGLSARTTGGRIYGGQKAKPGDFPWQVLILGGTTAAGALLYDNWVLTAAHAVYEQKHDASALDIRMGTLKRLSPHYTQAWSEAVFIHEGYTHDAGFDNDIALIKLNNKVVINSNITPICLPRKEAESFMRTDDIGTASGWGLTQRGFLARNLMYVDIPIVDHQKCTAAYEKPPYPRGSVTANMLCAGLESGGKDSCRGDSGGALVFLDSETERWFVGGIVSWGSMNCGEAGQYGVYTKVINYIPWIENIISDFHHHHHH
Chain of human MASP1 (P48740 other isoform, or with tags, fused parts or gaps): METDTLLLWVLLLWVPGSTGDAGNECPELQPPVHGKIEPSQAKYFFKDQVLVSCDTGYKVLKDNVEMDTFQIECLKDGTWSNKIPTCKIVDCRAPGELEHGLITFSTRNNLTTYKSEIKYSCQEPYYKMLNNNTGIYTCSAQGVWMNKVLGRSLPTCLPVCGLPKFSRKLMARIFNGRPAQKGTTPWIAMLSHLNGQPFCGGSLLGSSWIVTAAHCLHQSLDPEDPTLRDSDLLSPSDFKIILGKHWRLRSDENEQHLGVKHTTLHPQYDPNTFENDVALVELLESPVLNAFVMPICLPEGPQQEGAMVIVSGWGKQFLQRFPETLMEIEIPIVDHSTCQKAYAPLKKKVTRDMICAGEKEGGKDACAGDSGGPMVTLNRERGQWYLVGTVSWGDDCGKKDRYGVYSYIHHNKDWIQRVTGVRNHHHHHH

What is called IC50 is the midpoint of a concentration-inhibition curve. `CC[C@H](C)[C@@H]1NC(=O)CNC(=O)[C@H](CN)NC(=O)[C@H](CN)NC(=O)[C@H](CC(=O)O)NC(=O)[C@@H]2CCCN2C(=O)[C@H]([C@@H](C)CC)NC(=O)[C@@H]2CSSC[C@H](NC1=O)C(=O)N[C@@H](CO)C(=O)N[C@@H](CCCNC(=N)N)C(=O)N[C@@H](CO)C(=O)N[C@@H](CC(C)C)C(=O)N1CCC[C@H]1C(=O)N1CCC[C@H]1C(=O)N[C@@H]([C@@H](C)CC)C(=O)N2` [Example 23] (cyclo(CIPD[Dap][Dap]GICSRSLPPI); disulfide 1-9): the figures for the IC50 (on human MASP1; on human MASP2; in test [1]) were 180 nM, 20 nM and 121 nM, respectively.

With `CC[C@H](C)[C@@H]1NC(=O)[C@H](CCN)NC(=O)[C@H](CN)NC(=O)[C@H]([C@@H](C)CC)NC(=O)[C@H]2NC(=O)[C@H]([C@@H](C)CC)NC(=O)[C@@H]3CCCN3C(=O)[C@@H]3CCCN3C(=O)[C@H](CC(C)(C)C)NC(=O)[C@H](CO)NC(=O)[C@H](CCCNC(=N)N)NC(=O)[C@H](CO)NC(=O)[C@H](CSSC2(C)C)NC1=O` [Example 73] (cyclo(CSRS[tBuAla]PPI[Pen]I[Dap][Dab]I); disulfide 1-9), the IC50 at human MASP1 is 42 nM; on human MASP2 it was 430 nM.

Consider `CC[C@H](C)[C@@H]1NC(=O)[C@H](C)NC(=O)CCCCCNC(=O)CC[C@@H](C(N)=O)NC(=O)[C@@H]2CCCN2C(=O)[C@H]([C@@H](C)CC)NC(=O)[C@H]2NC(=O)[C@H]([C@@H](C)CC)NC(=O)[C@@H]3C[C@@H]4CCCC[C@@H]4N3C(=O)[C@@H]3CCCN3C(=O)[C@H](CC(C)C)NC(=O)[C@H](CO)NC(=O)[C@H](CCCNC(=N)N)NC(=O)[C@H](CO)NC(=O)[C@H](CSSC2(C)C)NC1=O` [Example 74] ([Ahx]AICSRSLP[Oic]I[Pen]IPE-NH2; disulfide 4-12; lactam N-15), for which the IC50 at human MASP1 came out at 14 nM; on human MASP2 it was 160 nM.

As to `CC[C@H](C)[C@@H]1NC(=O)CNC(=O)CN(C)C(=O)CCCCCNC(=O)CC[C@@H](C(N)=O)NC(=O)[C@@H]2CCCN2C(=O)[C@H]([C@@H](C)CC)NC(=O)[C@H]2NC(=O)[C@H]([C@@H](C)CC)NC(=O)[C@@H]3C[C@@H]4CCCC[C@@H]4N3C(=O)[C@@H]3CCCN3C(=O)[C@H](CC(C)C)NC(=O)[C@H](CO)NC(=O)[C@H](CCCNC(=N)N)NC(=O)[C@H](CO)NC(=O)[C@H](CSSC2(C)C)NC1=O` [Example 76] ([Ahx][Sar]GICSRSLP[Oic]I[Pen]IPE-NH2; disulfide 5-13; lactam N-16), the IC50 was 9.7 nM at human MASP1 and 180 nM at human MASP2.

Consider `CC[C@H](C)[C@@H]1NC(=O)[C@H](C)NC(=O)CN(C)C(=O)CCCCCNC(=O)CC[C@@H](C(N)=O)NC(=O)[C@@H]2CCCN2C(=O)[C@H]([C@@H](C)CC)NC(=O)[C@H]2NC(=O)[C@H]([C@@H](C)CC)NC(=O)[C@@H]3C[C@@H]4CCCC[C@@H]4N3C(=O)[C@@H]3CCCN3C(=O)[C@H](CC(C)C)NC(=O)[C@H](CO)NC(=O)[C@H](CCCNC(=N)N)NC(=O)[C@H](CO)NC(=O)[C@H](CSSC2(C)C)NC1=O` [Example 77] ([Ahx][Sar]AICSRSLP[Oic]I[Pen]IPE-NH2; disulfide 5-13; lactam N-16), for which the IC50 was determined as 11 nM on human MASP1 and 210 nM on human MASP2.

`CC[C@H](C)[C@@H]1NC(=O)[C@@H](C)NC(=O)CCCCCNC(=O)CC[C@@H](C(N)=O)NC(=O)[C@@H]2CCCN2C(=O)[C@H]([C@@H](C)CC)NC(=O)[C@H]2NC(=O)[C@H]([C@@H](C)CC)NC(=O)[C@@H]3C[C@@H]4CCCC[C@@H]4N3C(=O)[C@@H]3CCCN3C(=O)[C@H](CC(C)C)NC(=O)[C@H](CO)NC(=O)[C@H](CCCNC(=N)N)NC(=O)[C@H](CO)NC(=O)[C@H](CSSC2(C)C)NC1=O` [Example 79] ([Ahx][dA]ICSRSLP[Oic]I[Pen]IPE-NH2; disulfide 4-12; lactam N-15): the figures for the IC50 at human MASP1 and at human MASP2 were 22 nM and 45 nM, respectively.

As to `CC[C@H](C)[C@@H]1NC(=O)[C@H](C)NC(=O)CNC(=O)[C@@H](N)Cn2cc(nn2)C[C@@H](C(N)=O)NC(=O)[C@@H]2CCCN2C(=O)[C@H]([C@@H](C)CC)NC(=O)[C@@H]2CSSC[C@H](NC1=O)C(=O)N[C@@H](CO)C(=O)N[C@@H](CCCNC(=N)N)C(=O)N[C@@H](CO)C(=O)N[C@@H](CC(C)(C)C)C(=O)N1CCC[C@H]1C(=O)N1CCC[C@H]1C(=O)N[C@@H]([C@@H](C)CC)C(=O)N2` [Example 81] (H-[Dap(N3)]GAICSRS[tBuAla]PPICIP[Pra]-NH2; triazole 1-16; disulfide 5-13), the results for the IC50 at human MASP1 and at human MASP2 were 18 nM and 230 nM, respectively.

As to `CC[C@H](C)[C@@H]1NC(=O)[C@H](C)NC(=O)CNC(=O)CCCCCNC(=O)CC[C@@H](C(N)=O)NC(=O)[C@@H]2CCCN2C(=O)[C@H]([C@@H](C)CC)NC(=O)[C@H]2NC(=O)[C@H]([C@@H](C)CC)NC(=O)[C@@H]3C[C@@H]4CCCC[C@@H]4N3C(=O)[C@@H]3CCCN3C(=O)[C@H](CC(C)C)NC(=O)[C@H](CO)NC(=O)[C@H](CCCNC(=N)N)NC(=O)[C@H](CO)NC(=O)[C@H](CSSC2(C)C)NC1=O` [Example 82] ([Ahx]GAICSRSLP[Oic]I[Pen]IPE-NH2; disulfide 5-13; lactam N-16), the figures for the IC50 at human MASP1 and on human MASP2 were 69 nM and 700 nM, respectively.

`CC[C@H](C)[C@@H]1NC(=O)CNC(=O)CCCCCNC(=O)CC[C@@H](C(N)=O)NC(=O)[C@@H]2CCCN2C(=O)[C@H]([C@@H](C)CC)NC(=O)[C@H]2NC(=O)[C@H]([C@@H](C)CC)NC(=O)[C@@H]3C[C@@H]4CCCC[C@@H]4N3C(=O)[C@@H]3CCCN3C(=O)[C@H](CC(C)C)NC(=O)[C@H](CO)NC(=O)[C@H](CCCNC(=N)N)NC(=O)[C@H](CO)NC(=O)[C@H](CSSC2(C)C)NC1=O` [Example 83] ([Ahx]GICSRSLP[Oic]I[Pen]IPE-NH2; disulfide 4-12; lactam N-15): the IC50 at human MASP1 was 18 nM; on human MASP2, 91 nM.

Turning to `CC[C@H](C)[C@@H]1NC(=O)[C@@H](C)NC(=O)CNC(=O)CCCCCNC(=O)CC[C@@H](C(N)=O)NC(=O)[C@@H]2CCCN2C(=O)[C@H]([C@@H](C)CC)NC(=O)[C@H]2NC(=O)[C@H]([C@@H](C)CC)NC(=O)[C@@H]3C[C@@H]4CCCC[C@@H]4N3C(=O)[C@@H]3CCCN3C(=O)[C@H](CC(C)C)NC(=O)[C@H](CO)NC(=O)[C@H](CCCNC(=N)N)NC(=O)[C@H](CO)NC(=O)[C@H](CSSC2(C)C)NC1=O` [Example 84] ([Ahx]G[dA]ICSRSLP[Oic]I[Pen]IPE-NH2; disulfide 5-13; lactam N-16), the IC50 on human MASP1 was determined as 15 nM; at human MASP2, 87 nM.

As for `CC[C@H](C)[C@@H]1NC(=O)CNC(=O)[C@@H](N)CCC(=O)NCCCC[C@@H](C(N)=O)NC(=O)[C@@H]2CCCN2C(=O)[C@H]([C@@H](C)CC)NC(=O)[C@H]2NC(=O)[C@H]([C@@H](C)CC)NC(=O)[C@@H]3C[C@@H]4CCCC[C@@H]4N3C(=O)[C@@H]3CCCN3C(=O)[C@H](CC(C)C)NC(=O)[C@H](CO)NC(=O)[C@H](CCCNC(=N)N)NC(=O)[C@H](CO)NC(=O)[C@H](CSSC2(C)C)NC1=O` [Example 90] (H-EGICSRSLP[Oic]I[Pen]IPK-NH2; lactam 1-15; disulfide 4-12), the IC50 came to 9.8 nM on human MASP1 and 110 nM on human MASP2.

On to `CC[C@H](C)[C@@H]1NC(=O)CNC(=O)[C@@H](N)CCC(=O)NCCCC[C@@H](C(N)=O)NC(=O)[C@H](CC(=O)O)NC(=O)[C@@H]2CCCN2C(=O)[C@H]([C@@H](C)CC)NC(=O)[C@H]2NC(=O)[C@H]([C@@H](C)CC)NC(=O)[C@@H]3C[C@@H]4CCCC[C@@H]4N3C(=O)[C@@H]3CCCN3C(=O)[C@H](CC(C)C)NC(=O)[C@H](CO)NC(=O)[C@H](CCCNC(=N)N)NC(=O)[C@H](CO)NC(=O)[C@H](CSSC2(C)C)NC1=O` [Example 91] (H-EGICSRSLP[Oic]I[Pen]IPDK-NH2; lactam 1-16; disulfide 4-12), for which the IC50 on human MASP1 amounted to 29 nM; at human MASP2, 71 nM.

In the case of `CC[C@H](C)[C@@H]1NC(=O)CCCCCNC(=O)[C@H]([C@@H](C)CC)NC(=O)[C@@H]2CSSC[C@H](NC1=O)C(=O)N[C@@H](CO)C(=O)N[C@@H](CCCNC(=N)N)C(=O)N[C@@H](CO)C(=O)N[C@@H](CC(C)C)C(=O)N1CCC[C@H]1C(=O)N1[C@@H](C[C@@H]3CCCC[C@@H]31)C(=O)N[C@@H]([C@@H](C)CC)C(=O)N2` [Example 95, N-{3-[(6S,9S,12S,15S,18R,21S,31S,34R,37S,39aS,40aS,44aS,46aS)-21,31,37-tri[(2S)-butan-2-yl]-9,15-bis(hydroxymethyl)-6-(2-methylpropyl)-5,8,11,14,17,20,23,30,33,36,39,46-dodecaoxohexatetracontahydro-1H,5H-18,34-(methanodithiomethano)pyrrolo[2′,1′:15,16][1,4,7,10,13,16,19,22,25,28,31,34]dodecaazacyclotetracontino[13,12-a]indol-12-yl]propyl}guanidine] (cyclo([Ahx]ICSRSLP[Oic]ICI); disulfide 3-11), the IC50 on human MASP1 turned out to be 100 nM; at human MASP2 it was 110 nM.
